Reference: patent publication US11000033B2, “Ketone or oxime compound, and herbicide” (NISSAN CHEMICAL CORPORATION, priority 2014, dated 2021)

Assays:
Type in all cases: in vivo
soybean = test: Test Example 5: effect on crop by foliage application, plastic box (symbol d); details: 320 g/ha, 3 weeks after application
Outline: (§1)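 Diluvial soil, sterilized and boxed (21 × 13 × 7 cm), received spot-sown seed covered by about 1.5 cm soil; plants were then greenhouse-grown at 25–30° C.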

corn = test: Test Example 4: effect on crop by soil treatment (symbol c); details: application herbicide amount 320 g/ha
Outline: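 Seeds were sown in spots on sterilized diluvial soil in a plastic box and covered with about 1.5 cm of soil. Plants were then grown in a greenhouse at 25° C. to 30° C.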

Veronica persica = test: Test Example 5: herbicidal effect by foliage application, plastic box (symbol R); details: 320 g/ha, 3 weeks after application
Outline: (§2)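 Seeds were sown in sterilized diluvial soil, covered with about 1.5 cm of soil and grown 14 days in a greenhouse at 25° C. to 30° C. An emulsifiable formulation diluted in water to a set rate was sprayed over foliage, and injury was scored 3 weeks later.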

Apera spica-venti = test: Test Example 4: herbicidal effect by soil treatment (symbol L); details: application herbicide amount 320 g/ha
Outline: (§3)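 Seeds were sown in sterilized diluvial soil, covered with about 1.5 cm of soil, and the soil surface was sprayed with a water-diluted emulsion of the compound at a predetermined rate. Plants grew in a greenhouse at 25° C. to 30° C.; effects were scored visually 3 weeks after application.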

[1] = system: Echinochloa crus-galli var. crus-galli; test: Test Example 3: herbicidal effect by foliage application, Wagner pot (symbol H); details: application herbicide amount 320 g/ha
Outline: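 Rating at 3 weeks post-spray, by defined criteria. Treatment: emulsion diluted with water to a predetermined amount, applied evenly to foliage of 14-day-old plants raised in alluvial soil flooded 0.1–0.5 cm deep at 25–30 °C, rice co-sown.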

Alopecurus myosuroides = test: Test Example 4: herbicidal effect by soil treatment (symbol J); details: application herbicide amount 320 g/ha
Outline: as §3

[2] = system: directly sowed rice plant; test: Test Example 3: effect on crop by foliage application, Wagner pot (symbol b); details: application herbicide amount 320 g/ha
Outline: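 Alluvial soil in a 1/10000-are Wagner pot was flooded to a water depth of 0.1–0.5 cm. Echinochloa crus-galli var. crus-galli, Leptochloa chinensis, Cyperus difformis and rice were sown into it and grown in a greenhouse at 25–30 °C.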

Amaranthus retroflexus = test: Test Example 4: herbicidal effect by soil treatment (symbol N); details: application herbicide amount 320 g/ha
Outline: as §3

Monochoria vaginalis = test: Test Example 1: herbicidal activity, application before weed generation in submerged conditions (symbol C); details: application herbicide amount 320 g/ha
Outline: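 Ratings (5: ≥90%, near complete withering; 4: 70–<90%; 3: 40–<70%; 2: 20–<40%; 1: 5–<20%; 0: ≤5%) were assigned 3 weeks after the diluted emulsion was applied to the water surface of freshly sown, submerged pots.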

[3] = system: Echinochloa crus-galli var. crus-galli; test: Test Example 5: herbicidal effect by foliage application, plastic box (symbol H); details: 320 g/ha, 3 weeks after application
Outline: as §2

Abutilon theophrasti = test: Test Example 5: herbicidal effect by foliage application, plastic box (symbol M); details: 320 g/ha, 3 weeks after application
Outline: as §2

Stellaria media = test: Test Example 4: herbicidal effect by soil treatment (symbol P); details: application herbicide amount 320 g/ha
Outline: as §3

Setaria viridis = test: Test Example 5: herbicidal effect by foliage application, plastic box (symbol G); details: 320 g/ha, 3 weeks after application
Outline: as §2

wheat = test: Test Example 5: effect on crop by foliage application, plastic box (symbol e); details: 320 g/ha, 3 weeks after application
Outline: as §1

Lolium multiflorum Lam. = test: Test Example 4: herbicidal effect by soil treatment (symbol K); details: application herbicide amount 320 g/ha
Outline: as §3

Chenopodium album = test: Test Example 5: herbicidal effect by foliage application, plastic box (symbol O); details: 320 g/ha, 3 weeks after application
Outline: as §2

| Structure (SMILES) | d: soybean, effect on crop grade (soybean) | c (corn) effect on crop grade (corn) | R: Veronica persica, herbicidal effect grade (Veronica persica) | L (Apera spica-venti) herbicidal effect grade (Apera spica-venti) | herbicidal effect on H (Echinochloa crus-galli var. crus-galli), grade 0-5 [1] | J (Alopecurus myosuroides) herbicidal effect grade (Alopecurus myosuroides) | effect on crop b (directly sowed rice plant), grade 0-5 [2] | N (Amaranthus retroflexus) herbicidal effect grade (Amaranthus retroflexus) | Herbicidal effect grade, C: Monochoria vaginalis (Monochoria vaginalis) | H: Echinochloa crus-galli var. crus-galli, herbicidal effect grade [3] | M: Abutilon theophrasti, herbicidal effect grade (Abutilon theophrasti) | P (Stellaria media) herbicidal effect grade (Stellaria media) | G: Setaria viridis, herbicidal effect grade (Setaria viridis) | e: wheat, effect on crop grade (wheat) | K (Lolium multiflorum Lam.) herbicidal effect grade (Lolium multiflorum Lam.) | O: Chenopodium album, herbicidal effect grade (Chenopodium album) |
| --- | --- | --- | --- | --- | --- | --- | --- | --- | --- | --- | --- | --- | --- | --- | --- | --- |
| CON=C(C)CC1CC(O)=C(c2c(C)cc(C)cc2C)C1=O (centres unmarked) [1-002, 3-hydroxy-2-mesityl-5-{2-(methoxyimino)propyl}cyclopent-2-enone] | 4 (Herbicidal ratio of 70% or higher and lower than 90%) | 4 (Herbicidal ratio of 70% or higher and lower than 90%) | 4 (Herbicidal ratio of 70% or higher and lower than 90%) | 5 (Herbicidal ratio of 90% or more (almost completely withered)) | 5 (Herbicidal ratio of 90% or more (almost completely withered)) | 5 (Herbicidal ratio of 90% or more (almost completely withered)) | 5 (Herbicidal ratio of 90% or more (almost completely withered)) | 5 (Herbicidal ratio of 90% or more (almost completely withered)) | 4 (Herbicidal ratio of 70% or higher and lower than 90%) | 5 (Herbicidal ratio of 90% or more (almost completely withered)) | 4 (Herbicidal ratio of 70% or higher and lower than 90%) | 3 (Herbicidal ratio of 40% or higher and lower than 70%) | 5 (Herbicidal ratio of 90% or more (almost completely withered)) | 5 (Herbicidal ratio of 90% or more (almost completely withered)) | 5 (Herbicidal ratio of 90% or more (almost completely withered)) | 4 (Herbicidal ratio of 70% or higher and lower than 90%) |
| CCON=C(C)CC1CC(O)=C(c2c(C)cc(C)cc2C)C1=O (centres unmarked) [1-003] | 3 (Herbicidal ratio of 40% or higher and lower than 70%) | 5 (Herbicidal ratio of 90% or more (almost completely withered)) | 3 (Herbicidal ratio of 40% or higher and lower than 70%) | 5 (Herbicidal ratio of 90% or more (almost completely withered)) | 5 (Herbicidal ratio of 90% or more (almost completely withered)) | 5 (Herbicidal ratio of 90% or more (almost completely withered)) | 5 (Herbicidal ratio of 90% or more (almost completely withered)) | 3 (Herbicidal ratio of 40% or higher and lower than 70%) | 5 (Herbicidal ratio of 90% or more (almost completely withered)) | 5 (Herbicidal ratio of 90% or more (almost completely withered)) | 4 (Herbicidal ratio of 70% or higher and lower than 90%) | 3 (Herbicidal ratio of 40% or higher and lower than 70%) | 5 (Herbicidal ratio of 90% or more (almost completely withered)) | 5 (Herbicidal ratio of 90% or more (almost completely withered)) | 5 (Herbicidal ratio of 90% or more (almost completely withered)) | 3 (Herbicidal ratio of 40% or higher and lower than 70%) |
| CC(CC1CC(O)=C(c2c(C)cc(C)cc2C)C1=O)=NOCC(=O)N1CCOCC1 (centres unmarked) [1-025] | 3 (Herbicidal ratio of 40% or higher and lower than 70%) | 0 (Herbicidal ratio of 5% or lower (almost no effect)) | 3 (Herbicidal ratio of 40% or higher and lower than 70%) | 5 (Herbicidal ratio of 90% or more (almost completely withered)) | 5 (Herbicidal ratio of 90% or more (almost completely withered)) | 4 (Herbicidal ratio of 70% or higher and lower than 90%) | 5 (Herbicidal ratio of 90% or more (almost completely withered)) | 0 (Herbicidal ratio of 5% or lower (almost no effect)) | 0 (Herbicidal ratio of 5% or lower (almost no effect)) | 4 (Herbicidal ratio of 70% or higher and lower than 90%) | 1 (Herbicidal ratio of 5% or higher and lower than 20%) | 0 (Herbicidal ratio of 5% or lower (almost no effect)) | 4 (Herbicidal ratio of 70% or higher and lower than 90%) | 4 (Herbicidal ratio of 70% or higher and lower than 90%) | 5 (Herbicidal ratio of 90% or more (almost completely withered)) | 4 (Herbicidal ratio of 70% or higher and lower than 90%) |
| CSCCON=C(C)CC1CC(O)=C(c2c(C)cc(C)cc2C)C1=O (centres unmarked) [1-029] | 1 (Herbicidal ratio of 5% or higher and lower than 20%) | 0 (Herbicidal ratio of 5% or lower (almost no effect)) | 1 (Herbicidal ratio of 5% or higher and lower than 20%) | 5 (Herbicidal ratio of 90% or more (almost completely withered)) | 5 (Herbicidal ratio of 90% or more (almost completely withered)) | 3 (Herbicidal ratio of 40% or higher and lower than 70%) | 5 (Herbicidal ratio of 90% or more (almost completely withered)) | 0 (Herbicidal ratio of 5% or lower (almost no effect)) | 0 (Herbicidal ratio of 5% or lower (almost no effect)) | 5 (Herbicidal ratio of 90% or more (almost completely withered)) | 1 (Herbicidal ratio of 5% or higher and lower than 20%) | 0 (Herbicidal ratio of 5% or lower (almost no effect)) | 5 (Herbicidal ratio of 90% or more (almost completely withered)) | 5 (Herbicidal ratio of 90% or more (almost completely withered)) | 5 (Herbicidal ratio of 90% or more (almost completely withered)) | 3 (Herbicidal ratio of 40% or higher and lower than 70%) |
| CCC(CC1CC(O)=C(c2c(C)cc(C)cc2C)C1=O)=NOC (centres unmarked) [1-038] | 4 (Herbicidal ratio of 70% or higher and lower than 90%) | 3 (Herbicidal ratio of 40% or higher and lower than 70%) | 1 (Herbicidal ratio of 5% or higher and lower than 20%) | 5 (Herbicidal ratio of 90% or more (almost completely withered)) | 5 (Herbicidal ratio of 90% or more (almost completely withered)) | 5 (Herbicidal ratio of 90% or more (almost completely withered)) | 5 (Herbicidal ratio of 90% or more (almost completely withered)) | 3 (Herbicidal ratio of 40% or higher and lower than 70%) | 3 (Herbicidal ratio of 40% or higher and lower than 70%) | 5 (Herbicidal ratio of 90% or more (almost completely withered)) | 4 (Herbicidal ratio of 70% or higher and lower than 90%) | 0 (Herbicidal ratio of 5% or lower (almost no effect)) | 5 (Herbicidal ratio of 90% or more (almost completely withered)) | 4 (Herbicidal ratio of 70% or higher and lower than 90%) | 5 (Herbicidal ratio of 90% or more (almost completely withered)) | 0 (Herbicidal ratio of 5% or lower (almost no effect)) |
